What was measured:
ArfA-c(D236A) = assay type: binding, M. tuberculosis; conditions: pH 7
[1] = system: R277E mutant of ArfA-c(D236A); assay type: binding, M. tuberculosis

uridine-5'-diphosphate–MurNAc–L-Ala–D-γ-Glu–m-DAP–D-Ala– D-Ala [UMDP]
peak changes in 1H/15N NMR spectrum on addition of peptide (ArfA-c(D236A)): several peak frequency and intensity changes | changes in the NMR spectrum of the R277E mutant [1]: no changes were observed
